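Protocol summary: plate cells (96-well), add compound at 5 concentrations, incubate 48 h, interpolate endpoints linearly. GI50 is the concentration that inhibits growth by half.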 Activity calls are given as the source filed them. Rule as the data show it: active = GI50 up to about 1.1 µM and inactive = higher.
What was measured:
Experiment in all cases: DTP human tumour cell line panel, 48 h
MDA-MB-231 = tested on: MDA-MB-231
RXF 393 = tested on: RXF 393
CAKI-1 = tested on: CAKI-1
KM12 = tested on: KM12
HT-29 = tested on: HT-29
DU-145 = tested on: DU-145
SF-295 = tested on: SF-295
T47D = tested on: T47D
OVCAR-8 = tested on: OVCAR-8
NCI-H522 = tested on: NCI-H522
K562 = tested on: K562
IGROV-1 = tested on: IGROV-1
Malme-3M = tested on: Malme-3M
SK-MEL-28 = tested on: SK-MEL-28
COLO 205 = tested on: COLO 205
NCI-H23 = tested on: NCI-H23
NCI/ADR-RES = tested on: NCI/ADR-RES
MCF7 = tested on: MCF7
UACC-257 = tested on: UACC-257
Hs-578T = tested on: Hs-578T

Compound	GI50 (MDA-MB-231)	GI50 (RXF 393)	GI50 (CAKI-1)	GI50 (KM12)	GI50 (HT-29)	GI50 (DU-145)	GI50 (SF-295)	GI50 (T47D)	GI50 (OVCAR-8)	GI50 (NCI-H522)	GI50 (K562)	GI50 (IGROV-1)	GI50 (Malme-3M)	GI50 (SK-MEL-28)	GI50 (COLO 205)	GI50 (NCI-H23)	GI50 (NCI/ADR-RES)	GI50 (MCF7)	GI50 (UACC-257)	GI50 (Hs-578T)
COc1cc(NCc2ccc3nc(-c4ccccc4)c(N)nc3c2)cc(OC)c1OC	36 µM (inactive)	16 µM (inactive)	28.8 µM (inactive)	26.5 µM (inactive)	32.9 µM (inactive)	36.6 µM (inactive)	35.6 µM (inactive)	25.9 µM (inactive)	27.7 µM (inactive)	23.7 µM (inactive)	41 µM (inactive)	43.6 µM (inactive)	24.9 µM (inactive)	27.4 µM (inactive)	18.8 µM (inactive)	21.4 µM (inactive)	22.2 µM (inactive)	28.5 µM (inactive)	22.7 µM (inactive)	–
Nc1nncc2[nH]nnc12	> 100 µM (inactive)	> 100 µM (inactive)	> 100 µM (inactive)	> 100 µM (inactive)	> 100 µM (inactive)	> 100 µM (inactive)	> 100 µM (inactive)	> 100 µM (inactive)	> 100 µM (inactive)	–	0.186 µM (active)	> 100 µM (inactive)	–	> 100 µM (inactive)	> 100 µM (inactive)	> 100 µM (inactive)	> 100 µM (inactive)	> 100 µM (inactive)	> 100 µM (inactive)	> 100 µM (inactive)
COC1=CC2=NCCc3n[nH]c(c32)C1=O	14.5 µM (inactive)	–	–	28.1 µM (inactive)	13 µM (inactive)	–	28.1 µM (inactive)	2.9 µM (inactive)	15.2 µM (inactive)	3.51 µM (inactive)	0.0545 µM (active)	19.1 µM (inactive)	16.3 µM (inactive)	18.1 µM (inactive)	17.7 µM (inactive)	14.4 µM (inactive)	29.1 µM (inactive)	4.86 µM (inactive)	15.6 µM (inactive)	29.8 µM (inactive)
O=C(c1ccccc1)c1ccc2[nH]c(-c3c(Cl)c(Cl)c(Cl)c(Cl)c3C(=O)Nc3ccco3)nc2c1	34.4 µM (inactive)	41.8 µM (inactive)	> 100 µM (inactive)	33 µM (inactive)	28.4 µM (inactive)	78.9 µM (inactive)	23.6 µM (inactive)	37 µM (inactive)	60.3 µM (inactive)	25.7 µM (inactive)	16.6 µM (inactive)	41.1 µM (inactive)	–	81.1 µM (inactive)	45.5 µM (inactive)	4.86 µM (inactive)	16.4 µM (inactive)	24.8 µM (inactive)	45.7 µM (inactive)	–
NC(=O)c1cc2ccccc2o/c1=N/c1ccccc1	> 100 µM (inactive)	> 100 µM (inactive)	> 100 µM (inactive)	> 100 µM (inactive)	> 100 µM (inactive)	> 100 µM (inactive)	–	> 100 µM (inactive)	> 100 µM (inactive)	–	> 100 µM (inactive)	> 100 µM (inactive)	> 100 µM (inactive)	> 100 µM (inactive)	> 100 µM (inactive)	> 100 µM (inactive)	> 100 µM (inactive)	> 100 µM (inactive)	> 100 µM (inactive)	> 100 µM (inactive)
COc1ccc2c3c1OC1C(OC)(OC)CC4(C=C2)CN(C)CCC314 (centres undefined)	> 100 µM (inactive)	> 100 µM (inactive)	> 100 µM (inactive)	> 100 µM (inactive)	> 100 µM (inactive)	> 100 µM (inactive)	> 100 µM (inactive)	> 100 µM (inactive)	> 100 µM (inactive)	–	41.9 µM (inactive)	> 100 µM (inactive)	> 100 µM (inactive)	> 100 µM (inactive)	> 100 µM (inactive)	> 100 µM (inactive)	> 100 µM (inactive)	> 100 µM (inactive)	> 100 µM (inactive)	–
O[C@H]1[C@H](O)[C@@H](O)[C@H](O)[C@@H](O)[C@H]1O [INOSITOL]	> 1000 µM (inactive)	> 1000 µM (inactive)	–	–	> 1000 µM (inactive)	> 1000 µM (inactive)	–	> 1000 µM (inactive)	> 1000 µM (inactive)	–	> 1000 µM (inactive)	> 1000 µM (inactive)	> 1000 µM (inactive)	> 1000 µM (inactive)	> 1000 µM (inactive)	> 1000 µM (inactive)	> 1000 µM (inactive)	> 1000 µM (inactive)	> 1000 µM (inactive)	> 1000 µM (inactive)
COc1cccc(-c2nc(-c3cnccn3)n(C3OC(CO)C(O)C3O)n2)c1 (centres undefined)	> 100 µM (inactive)	–	–	> 100 µM (inactive)	> 100 µM (inactive)	> 100 µM (inactive)	> 100 µM (inactive)	> 100 µM (inactive)	> 100 µM (inactive)	> 100 µM (inactive)	> 100 µM (inactive)	> 100 µM (inactive)	–	> 100 µM (inactive)	> 100 µM (inactive)	> 100 µM (inactive)	> 100 µM (inactive)	> 100 µM (inactive)	> 100 µM (inactive)	–
Cc1ccccc1/N=N/c1c(O)ccc2ccccc12	> 100 µM (inactive)	> 100 µM (inactive)	> 100 µM (inactive)	16.4 µM (inactive)	> 100 µM (inactive)	> 100 µM (inactive)	77.1 µM (inactive)	59.3 µM (inactive)	> 100 µM (inactive)	> 100 µM (inactive)	> 100 µM (inactive)	59.2 µM (inactive)	> 100 µM (inactive)	> 100 µM (inactive)	> 100 µM (inactive)	> 100 µM (inactive)	> 100 µM (inactive)	–	> 100 µM (inactive)	49.3 µM (inactive)
CCN(CC)CCCNc1ccc2nc(C)n3c4ccc(O)cc4c(=O)c1c23	–	3.89 µM (inactive)	4.78 µM (inactive)	3.61 µM (inactive)	1.17 µM (inactive)	5.46 µM (inactive)	5.16 µM (inactive)	15.4 µM (inactive)	1.95 µM (inactive)	0.485 µM (active)	2.97 µM (inactive)	1.64 µM (inactive)	10.7 µM (inactive)	12.7 µM (inactive)	5.18 µM (inactive)	1.34 µM (inactive)	12.6 µM (inactive)	0.863 µM (active)	15.5 µM (inactive)	7.08 µM (inactive)
O=C(N/N=C/c1ccco1)c1cc(I)cc(I)c1O	–	20.7 µM (inactive)	19.4 µM (inactive)	–	6.41 µM (inactive)	23.4 µM (inactive)	–	26 µM (inactive)	19.4 µM (inactive)	27.2 µM (inactive)	27.6 µM (inactive)	15.8 µM (inactive)	22.2 µM (inactive)	28.2 µM (inactive)	3.02 µM (inactive)	21.7 µM (inactive)	20.7 µM (inactive)	24.2 µM (inactive)	–	34.5 µM (inactive)

Reference: ChEMBL document CHEMBL1201862, “PubChem BioAssay data set” (2004)
